Test results published in article PMC3131257, “Hypericum lanceolatum (Hypericaceae) as a potential source of new anti-malarial agents: a bioassay-guided fractionation of the stem bark” (Malaria Journal, 2011).
Values after ≈ are worked out from the molar mass of the structure shown. Structures can show the parent of a compound that is named as a salt. Where two headings read alike, the source gives them in different places.

Key:
[1] = cytotoxicity on LLC-MK2 monkey kidney epithelial cells; settings: monkey, LLC-MK2 monkey kidney epithelial cells, CC50 on LLC-MK2, pure compounds; five days incubation
Protocol: (§1) The cytotoxicity profiles of the extracts and pure compounds were estimated against LLC-MK2 monkey kidney epithelial cells according to the procedure previously described with some modifications. Cells were cultured under the same conditions as P. falciparum. Cells were distributed in 96-well plates at 20,000 cells per well in 100 μL culture medium, and allowed to attach and become confluent, for 24h. The medium was then removed completely the next day and 100 μL of fresh medium was added to all the wells, followed by 100 μL of crude extract (1000 μg/mL) or pure compounds (200 μg/mL) added in triplicate in row H. A two folds serial dilution was made upward to obtain concentration range of 250 - 3.90 μg/ml (crude extract) or 50 - 0.78 μg/ml (pure compounds), cells at row A serving as control without drug. The plates were incubated for five days at 37°C in 5% CO2 in air. Cells concentration and viability in the presence of extracts or pure compounds were compared with that of control cultures without extracts.

[2] = system: LLC-MK2 monkey kidney epithelial cells; experiment: as above; settings: pure compounds; five days incubation
Protocol: as §1

[3] = system: field isolate (SHF4) of Plasmodium falciparum; experiment: anti-plasmodial drug sensitivity assay, pLDH method, SHF4 field isolate; assay type: cell-based; settings: for IC50: Plasmodium falciparum, pure compounds, pLDH assay
Protocol: (§2) The W2mef (MRA-615) strain was ordered from the Malaria Research and Reference Reagent Resource Centre (MR4, Manassas, VA, USA), and maintained in continuous culture. The SHF4 field isolate previously isolated from a malaria patient in Buea in the South West region of Cameroon, had been stored in liquid nitrogen at the Biotechnology Unit, University of Buea.
(§3) The field isolate and the laboratory strain of P. falciparum were grown and maintained in culture using the method of Trager and Jensen with some modification. All the chemicals except Albumax II (Gibco; Invitrogen, USA), were ordered from Sigma-Aldrich Inc (Germany). Cultures consisted of a 4% haematocrit suspension of O+ human erythrocytes in RPMI 1640 medium supplemented with a gentamicin solution at 0.01 mg/mL, 25 mM HEPES buffer, 25 mM NaHCO3, and 1% Albumax II. Cultures were fed with a gas mixture consisting of 5% CO2 and incubated at 37°C (CO2 incubator Heraeus, Hera cell 150; USA). The estimation of the parasitaemia as well as parasite visualization before incubation was done using both fluorescence (Acridine Orange) and normal light (Giemsa stain) microscopes.
(§4) The drug sensitivity assay was carried out in 96-well microtitration plates as described by Desjardins et al with some modifications. All stock solutions were sterilized by passing them through a 0.2 μm syringe filter and stored at -20°C until required. Similarly, a 2 μg/mL stock solution of quinine dihydrochloride (Rotexmedica, Trittau, Germany) was prepared and used as positive control. The parasitaemia was measured using the parasite lactate dehydrogenase (pLDH) assay.
(§5) The pLDH assay generates optical density (OD) values at various concentrations of the drug as raw data. OD values from control wells represent the maximum amount of pLDH produced by parasites and OD values from blank wells (containing a 4% suspension of non parasitized red blood cells in malaria culture medium) represented background pLDH activity. A 100% growth value, which corresponds to maximum LDH activity, was obtained by subtracting the mean OD value of blank wells from that of control wells. Likewise, the growth value at each concentration of the drug was obtained by adjusting OD values from drug-treated wells for background pLDH activity (parasite-free red blood cells). These values were then expressed as a percentage of the maximal growth value and plotted against corresponding concentrations of the drug using the software HN-NonLin V1.1 [14] to generate log dose-response curves from which the 50%, 90%, 95% and 99% Inhibitory Concentrations (IC50, IC90, IC95 and IC99 respectively) were obtained. Each product was tested in triplicate in each of the two separate experiments, giving a total of six repeats per product and per concentration tested. The IC50 values obtained from these replicates were pooled and expressed as geometric mean IC50 values and the different means compared among themselves by independent samples t-test using SPSS Statistics 17.0 (Chicago, USA).

[4] = system: multidrug-resistant W2mef strain of P. falciparum; experiment: microbe, parasite or virus in culture; assay type: cell-based, Plasmodium falciparum
Protocol: as §2, §3, §4, §5

[5] = system: W2 strain of P. falciparum; design: method as in PMID 18239315; settings: betulinic acid from Psorospermum glaberrimum; cited from earlier work
[6] = system: CQ-sensitive T9-96 P. falciparum; settings: betulinic acid from Uapaca nitida root bark; cited from earlier work
neural cells = settings: in vitro; cited from earlier work
[7] = system: CQ-resistant K1 P. falciparum; settings: betulinic acid from Uapaca nitida root bark; cited from earlier work
K1 = settings: against K1; cited from earlier work
P. falciparum = system: P. falciparum; design: method as in PMID 9581528; settings: growth of P. falciparum; cited from earlier work
[8] = Plasmodium falciparum, read-out: IC50 on W2mef, pure compounds, pLDH assay
[9] = Plasmodium falciparum, read-out: IC50 on W2mef, pure compounds, values expressed in μg/mL (Table 2 footnote *, text b34)
[10] = read-out: IC50 on W2mef, pure compounds, pLDH assay

COc1cccc2c(=O)c3ccc(O)cc3oc12 [HLT4, 3-hydroxy-5-methoxyxanthone]
CC50 at 5 days [1]: 10 to 30 µg/mL (≈ 41.3 to 124 µM)
CC50 on LLC-MK2 [2]: 12.50 ± 0.00 µg/mL (≈ 51.6 µM)
IC50 [3]: 34.09 ± 0.12 µM
anti-plasmodial activity (in words) ([3]; against the field isolate): inactive
IC50 [4, 8]: 33.84 ± 0.2 µM
anti-plasmodial activity (in words) ([4]; against W2mef): inactive

C=C[C@H]1C[N@@]2CC[C@H]1C[C@H]2[C@H](O)c1ccnc2ccc(OC)cc12 [QN, quinine dihydrochloride, reference compound]
IC50 [3]: 0.14 ± 0.05 µM
IC50 [4, 8]: 0.27 ± 0.04 µM
IC50 ([4]; Plasmodium falciparum, read-out: IC50 on W2mef, sub-extracts and fractions, pLDH assay): 0.27 ± 0.04 µg/mL

C=C(C)[C@@H]1CC[C@]2(C(=O)O)CC[C@]3(C)[C@H](CC[C@@H]4[C@@]5(C)CC[C@H](O)C(C)(C)[C@@H]5CC[C@]43C)[C@@H]12 [HLT1, 3-hydroxy-lup-20(29)-en-28-oic acid]
IC50 [5]: 5.1 µM
IC50 [6]: 25.9 µg/mL (≈ 56.7 µM)
CC50 on LLC-MK2 [2]: 25.00 ± 0.00 µg/mL (≈ 54.7 µM)
cytotoxic activity against neural cells (in words) (neural cells): no significant cytotoxic activity
IC50 [3]: 5.6 ± 0.13 µM
IC50 [4, 8]: < 5 µM
IC50 [4, 9]: < 5 µg/mL
IC50 [4, 10]: 4.5 ± 1.35 µM
IC50 [7]: 19.6 µg/mL (≈ 42.9 µM)

COc1ccc2c(=O)c3cccc(O)c3oc2c1 [HLT3, 5-hydroxy-3-methoxyxanthone]
CC50 at 5 days [1]: > 100 µg/mL
IC50 [3]: 1.43 ± 0.48 µM
IC50 [4, 8]: < 5 µM
IC50 [4, 9]: < 5 µg/mL
IC50 [4, 10]: 3.26 ± 0.08 µM

6-hydroxyluteolin-7-O-(1^2-a-rhamnoside
IC50 (K1): 2.13 µg/mL

O=C(c1cc(O)ccc1O)c1c(O)cccc1O [HLT2, 2,2',5,6'-tetrahydroxybenzophenone]
CC50 at 5 days [1]: > 100 µg/mL
IC50 [3]: 13.4 ± 0.16 µM
IC50 [4, 8]: 55.1 ± 0.93 µM

garciniaxanthone
IC50 (P. falciparum): 0.96 µg/mL
